# Where a SMILES comes first, the peptide text is derived from it. The star is where a group is joined. 5FAM = O=C1OC2(c3ccc(O)cc3Oc3cc(O)ccc32)c2ccc(C(=O)*)cc21
# Tested on: MM6 cell line
# Settings: 5(6)-FAM-labeled peptides 10 μM, MM6 cells, 2 h, flow cytometry FITC channel, trypan blue quenching
row,SMILES,Internalization (cellular uptake) profile
1,CC[C@H](C)[C@H](NC(=O)[C@H](CCCCN)NC(=O)[C@H](CCC(=O)O)NC(=O)[C@H](Cc1ccc(O)cc1)NC(=O)[C@@H]1CCCN1C(=O)[C@H](CC(=O)O)NC(=O)c1ccc2c(c1)C(=O)OC21c2ccc(O)cc2Oc2cc(O)ccc21)C(=O)NCC(=O)N[C@@H](C)C(=O)N[C@@H](CCC(=O)O)C(=O)N[C@@H](CC(C)C)C(=O)N[C@H](C(=O)N[C@@H](CCCCN)C(N)=O)C(C)C [Grol2 (63–78)],highest cell internalization among MHC II binding epitopes
2,C[C@H](NC(=O)[C@H](C)NC(=O)[C@H](CCCCN)NC(=O)[C@H](CCCCN)NC(=O)[C@H](C)NC(=O)[C@@H]1CCCN1C(=O)[C@H](C)NC(=O)[C@H](CCCCN)NC(=O)c1ccc2c(c1)C(=O)OC21c2ccc(O)cc2Oc2cc(O)ccc21)C(=O)N[C@@H](C)C(=O)N[C@@H](CCCCN)C(N)=O [HBHA (185–194)] (5FAM-KAPAKKAAAK-NH2),significant cellular uptake
3,CC[C@H](C)[C@H](NC(=O)[C@H](C)NC(=O)[C@H](CCC(N)=O)NC(=O)[C@H](Cc1c[nH]c2ccccc12)NC(=O)[C@H](CC(C)C)NC(=O)[C@H](CCCCN)NC(=O)[C@H](CCCCN)NC(=O)[C@@H](NC(=O)[C@H](Cc1ccc(O)cc1)NC(=O)[C@H](C)NC(=O)c1ccc2c(c1)C(=O)OC21c2ccc(O)cc2Oc2cc(O)ccc21)[C@@H](C)O)C(=O)N[C@@H](CCCNC(=N)N)C(=O)N[C@@H](C)C(=O)N[C@@H](CCC(N)=O)C(=O)N[C@@H](CC(=O)O)C(=O)N[C@H](C(N)=O)C(C)C [RpfA (377–391)] (5FAM-AYTKKLWQAIRAQDV-NH2),weak internalization profile
4,CC(C)[C@H](NC(=O)[C@H](C)NC(=O)[C@@H](NC(=O)CNC(=O)[C@H](C)NC(=O)c1ccc2c(c1)C(=O)OC21c2ccc(O)cc2Oc2cc(O)ccc21)[C@@H](C)O)C(=O)N[C@@H](CCC(N)=O)C(=O)N[C@@H](CC(=O)O)C(=O)N[C@@H](CO)C(=O)N[C@@H](CCCNC(=N)N)C(=O)N[C@@H](CO)C(=O)N[C@@H](Cc1c[nH]cn1)C(=O)N[C@H](C(=O)N[C@@H](Cc1ccc(O)cc1)C(=O)N[C@@H](C)C(=O)N[C@@H](Cc1c[nH]cn1)C(N)=O)C(C)C [Rv1733c (63–77)] (5FAM-AGTAVQDSRSHVYAH-NH2),weak internalization profile

# Source: paper PMC10587871 (Bioconjugate Chemistry, 2023)
